The record followed here is patent US12543738B2 (Bayer Aktiengesellschaft, priority 2020, dated 2026).

The structures appear in SMILES notation.

The nature of data set [1]: Measurement of LogP values by HPLC on reversed phase columns (EEC directive 79/831 Annex V.A8). It is filed as physicochemical. The note with it: method [a]: LC-UV, acidic range, 0.1% formic acid in water and acetonitrile; compounds of formula (I-1), Table 1. As to the method: Calibration was done with straight-chain alkan2-ones (with 3 to 16 carbon atoms) with known LogP values (measurement of LogP values using retention times with linear interpolation between successive alkanones). Lambda-max-values were determined using UV-spectra from 200 nm to 400 nm and the peak values of the chromatographic signals

For a further data set, the system named is Fusarium culmorum. Nature of the data set: Fusarium culmorum in vitro cell test. The note with it: 96 h, 20 ppm of active ingredient, liquid culture, 4 days incubation, read-out: efficacy (inhibition of fungal growth). It is filed as cell-based. As to the method:
• Solvent: DMSO • Culture medium: 14.6 g anhydrous D-glucose (VWR), 7.1 g Mycological Peptone (Oxoid), 1.4 g granulated Yeast Extract (Merck), QSP 1 liter • Inoculum: spore suspension • Fungicides were solubilized in DMSO and the solution used to prepare the required range of concentrations. The final concentration of DMSO used in the assay was ≤1%.
A spore suspension of F. culmorum was prepared and diluted to the desired spore density.
Fungicides were evaluated for their ability to inhibit spore germination and mycelium growth in liquid culture assay. The compounds were added in the desired concentration to the culture medium with spores. After 4 days incubation, fungi-toxicity of compounds was determined by spectrometric measurement of mycelium growth. Inhibition of fungal growth was determined by comparing the absorbance values in wells containing the fungicides with the absorbance in control wells without fungicides.

The subject of data set [2] is Colletotrichum lindemuthianum. Nature of the data set: In vivo preventive test on Colletotrichum lindemuthianum (leaf spot on bean). The note with it: 168 h, 500 ppm of active ingredient, preventive spray on bean, evaluated 7 days after inoculation, read-out: efficacy. As to the method:
The active ingredients were made soluble and homogenized in a mixture of Dimethyl sulfoxide/Acetone//Tween® 80 and then diluted in water to the desired concentration. The young plants of bean were treated by spraying the active ingredient prepared as described above. Control plants were treated only with an aqueous solution of Acetone/Dimethyl sulfoxide/Tween® 80. After 24 hours, the plants were contaminated by spraying the leaves with an aqueous suspension of Colletotrichum lindemuthianum spores.

Data set [3] deals with Colletotrichum lindemuthianum. Nature of the data set: Colletotrichum lindemuthianum in vitro cell test. It is filed as cell-based. The note with it: 144 h, 20 ppm of active ingredient, liquid culture, 6 days incubation, read-out: efficacy (inhibition of fungal growth). As to the method:
(§1) • Solvent: DMSO • Culture medium: 14.6 g anhydrous D-glucose (VWR), 7.1 g Mycological Peptone (Oxoid), 1.4 g granulated Yeast Extract (Merck), QSP 1 liter • Inoculum: spores suspension Fungicides were solubilized in DMSO and the solution used to prepare the required range of concentrations. […] A spore suspension of C. lindemuthianum was prepared and diluted to the desired spore density. Fungicides were evaluated for their ability to inhibit spores germination and mycelium growth in liquid culture assay. The compounds were added in the desired concentration to the culture medium with spores. After 6 days incubation, fungi-toxicity of compounds was determined by spectrometric measurement of mycelium growth. Inhibition of fungal growth was determined by comparing the absorbance values in wells containing the fungicides with the absorbance in control wells without fungicides.

The next data set concerns Botrytis cinerea. In words: In vivo preventive test on Botrytis cinerea (grey mould). The note with it: 500 ppm of active ingredient, preventive spray on gherkin or cabbage, evaluated 4 to 5 days after inoculation, read-out: efficacy. As to the method:
The active ingredients were made soluble and homogenized in a mixture of Dimethyl sulfoxide/Acetone//Tween® 80 and then diluted in water to the desired concentration. The young plants of gherkin or cabbage were treated by spraying the active ingredient prepared as described above. Control plants were treated only with an aqueous solution of Acetone/Dimethyl sulfoxide/Tween® 80. After 24 hours, the plants were contaminated by spraying the leaves with an aqueous suspension of Botrytis cinerea spores.

Another data set concerns Septoria tritici. In words: Septoria tritici in vitro cell test. It is filed as cell-based. The note with it: Zymoseptoria tritici, 168 h; 20 ppm of active ingredient; liquid culture, 7 days incubation; read-out: efficacy (inhibition of fungal growth). As to the method:
• Solvent: DMSO • Culture medium: 1 g KH2PO4 (VWR), 1 g K2HPO4 (VWR), 0.5 g Urea (VWR), 3 g KNO3 (Prolabo), 10 g saccharose (VWR), 0.5 g MgSO4, 7H2O (Sigma), 0.07 g CaCl2, 2H2O (Prolabo), 0.2 mg MnSO4, H2O (Sigma), 0.6 mg CuSO4, 5H2O (Sigma), 7.9 mg ZnSO4, 7H2O (Sigma), 0.1 mg H3BO3 (Merck), 0.14 mg NaMoO4, 2H2O (Sigma), 2 mg thiamine (Sigma), 0.1 mg biotine (VWR), 4 mg FeSO4, 7H2O (Sigma), QSP 1 liter • Inoculum: spore suspension Fungicides were solubilized in DMSO and the solution used to prepare the required range of concentrations. […] A spore suspension of S. tritici was prepared and diluted to the desired spore density. Fungicides were evaluated for their ability to inhibit spore germination and mycelium growth in liquid culture assay. The compounds were added in the desired concentration to the culture medium with spores. […] Inhibition of fungal growth was determined by comparing the absorbance values in wells containing the fungicides with the absorbance in control wells without fungicides.

In the next data set the test system is Pyricularia Oryzae. Nature of the data set: microbe, parasite or virus in culture. It is filed as cell-based. The note with it: 120 h, read-out: efficacy (inhibition of fungal growth).
In a further data set the test system is Pyrenophora teres. In words: In vivo preventive test on Pyrenophora teres (net blotch on barley). The note with it: 240 h, 500 ppm of active ingredient, preventive spray on barley, evaluated 10 days after inoculation, read-out: efficacy. As to the method:
The active ingredients were made soluble and homogenized in a mixture of Dimethyl sulfoxide/Acetone//Tween® 80 and then diluted in water to the desired concentration. The young plants of barley were treated by spraying the active ingredient prepared as described above. Control plants were treated only with an aqueous solution of Acetone/Dimethyl sulfoxide/Tween® 80. After 24 hours, the plants were contaminated by spraying the leaves with an aqueous suspension of Pyrenophora teres spores.

For another data set, the system named is Sphaerotheca fuliginea. In words: In vivo preventive test on Sphaerotheca fuliginea (powdery mildew on cucurbits). The note with it: Podosphaera fuliginea, 192 h; 500 ppm of active ingredient; preventive spray on gherkin; evaluated 8 days after inoculation; read-out: efficacy. As to the method:
The active ingredients were made soluble and homogenized in a mixture of Dimethyl sulfoxide/Acetone//Tween® 80 and then diluted in water to the desired concentration. The young plants of gherkin were treated by spraying the active ingredient prepared as described above. Control plants were treated only with an aqueous solution of Acetone/Dimethyl sulfoxide/Tween® 80. After 24 hours, the plants were contaminated by spraying the leaves with an aqueous suspension of Sphaerotheca fuliginea spores.

Another data set relates to Alternaria brassicae. Nature of the data set: In vivo preventive test on Alternaria brassicae (leaf spot on radish or cabbage). The note with it: 144 h, 500 ppm of active ingredient, preventive spray on radish or cabbage, evaluated 6 days after inoculation, read-out: efficacy. On the procedure:
The active ingredients were made soluble and homogenized in a mixture of Dimethyl sulfoxide/Acetone//Tween® 80 and then diluted in water to the desired concentration. The young plants of radish or cabbage were treated by spraying the active ingredient prepared as described above. Control plants were treated only with an aqueous solution of Acetone/Dimethyl sulfoxide/Tween® 80. After 24 hours, the plants were contaminated by spraying the leaves with an aqueous suspension of Alternaria brassicae spores.

A further data set relates to Alternaria alternata. In words: Alternaria alternata in vitro cell test. The note with it: 120 h, 20 ppm of active ingredient, liquid culture, 5 days incubation, read-out: efficacy (inhibition of fungal growth). It is filed as cell-based. On the procedure: as §1, with “of A. alternata” for “of C. lindemuthianum”, “inhibit spore” for “inhibit spores”, “After 5” for “After 6”

Broadly, the chromatographic logP is a lipophilicity value derived from retention on a column. A lower chromatographic logP goes with a more hydrophilic compound. What is called inhibition is the relative decrease from the control value, in per cent. `Cc1ccc(CC2CON=C(c3cc(C)nnc3Oc3cccc(Cl)c3)N2)c(C)c1` (racemic) [Compound I-002, (5RS)-3-[3-(3-chlorophenoxy)-6-methylpyridazin-4-yl]-5-(2,4-dimethylbenzyl)-5,6-dihydro-4H-1,2,4-oxadiazine] showed a chromatographic logP in [1] of 3.77. Moreover, the inhibition at 20 ppm (with Fusarium culmorum; in data set [3]; in the data set with Septoria tritici; in the data set with Pyricularia Oryzae; in the data set with Alternaria alternata) was 90 to 100% each time. The pest or weed control at 500 ppm (in data set [2]; in the data set with Botrytis cinerea; with Pyrenophora teres; in the data set with Sphaerotheca fuliginea; with Alternaria brassicae) was 90 to 100% in each case.
Take `Cc1ccc(CC2CON=C(c3cc(C)nnc3Oc3cccc(C)c3F)N2)c(Cl)c1` (racemic) [Compound I-003, (5RS)-5-(2-chloro-4-methylbenzyl)-3-[3-(2-fluoro-3-methylphenoxy)-6-methylpyridazin-4-yl]-5,6-dihydro-4H-1,2,4-oxadiazine]: the chromatographic logP in data set [1] worked out at 3.78. For the same molecule, the inhibition at 20 ppm (in the data set with Fusarium culmorum; in data set [3]; in the data set on Septoria tritici; with Pyricularia Oryzae; with Alternaria alternata) was 90 to 100% each time. Besides, the pest or weed control at 500 ppm (in [2]; with Botrytis cinerea; with Pyrenophora teres; with Sphaerotheca fuliginea; with Alternaria brassicae) was 90 to 100% throughout.
`Cc1ccc(CC2CON=C(c3cc(C)nnc3Oc3cccc(Cl)c3)N2)c(Cl)c1` (racemic) [Compound I-004, (5RS)-5-(2-chloro-4-methylbenzyl)-3-[3-(3-chlorophenoxy)-6-methylpyridazin-4-yl]-5,6-dihydro-4H-1,2,4-oxadiazine] displayed a chromatographic logP in data set [1] of 3.81. The inhibition at 20 ppm (in the data set with Fusarium culmorum; in [3]; in the data set on Septoria tritici; with Pyricularia Oryzae; in the data set on Alternaria alternata) was 90 to 100% throughout. The pest or weed control at 500 ppm (in data set [2]; in the data set on Botrytis cinerea; in the data set on Pyrenophora teres; with Sphaerotheca fuliginea; in the data set on Alternaria brassicae) was 90 to 100% in each case.
In data set [1], `Cc1cccc(Oc2nnc(Cl)cc2C2=NOCC(Cc3ccc(Cl)cc3Cl)N2)c1F` (racemic) [Compound I-005, (5RS)-3-[6-chloro-3-(2-fluoro-3-methylphenoxy)pyridazin-4-yl]-5-(2,4-dichlorobenzyl)-5,6-dihydro-4H-1,2,4-oxadiazine] returned a chromatographic logP of 4.47. The inhibition at 20 ppm (in the data set on Fusarium culmorum; in [3]; in the data set with Septoria tritici; with Pyricularia Oryzae; in the data set on Alternaria alternata) was 90 to 100% throughout. Further, the pest or weed control at 500 ppm (in data set [2]; with Botrytis cinerea; in the data set on Pyrenophora teres; with Sphaerotheca fuliginea; with Alternaria brassicae) was 90 to 100% each time.
Turning to `Cc1ccc(CC2CON=C(c3cc(C)nnc3Oc3cccc(Cl)c3F)N2)c(Br)c1` (racemic) [Compound I-006, (5RS)-5-(2-bromo-4-methylbenzyl)-3-[3-(3-chloro-2-fluorophenoxy)-6-methylpyridazin-4-yl]-5,6-dihydro-4H-1,2,4-oxadiazine], the chromatographic logP in data set [1] worked out at 4.01. Moreover, the inhibition at 20 ppm (in the data set with Fusarium culmorum; in data set [3]; with Septoria tritici; with Pyricularia Oryzae; in the data set on Alternaria alternata) was 90 to 100% in each case. Moreover, the pest or weed control at 500 ppm (in data set [2]; in the data set with Botrytis cinerea; in the data set with Pyrenophora teres; in the data set on Sphaerotheca fuliginea; in the data set with Alternaria brassicae) was 90 to 100% each time.
`Cc1cc(C2=NOCC(Cc3ccc(Cl)cc3Cl)N2)c(Oc2cccc(C)c2F)nn1` (racemic) [Compound I-007, (5RS)-5-(2,4-dichlorobenzyl)-3-[3-(2-fluoro-3-methylphenoxy)-6-methylpyridazin-4-yl]-5,6-dihydro-4H-1,2,4-oxadiazine]: the chromatographic logP in data set [1] was determined as 3.91. For the same molecule, the inhibition at 20 ppm (with Fusarium culmorum; in data set [3]; with Septoria tritici; with Pyricularia Oryzae; in the data set with Alternaria alternata) was 90 to 100% throughout. In addition, the pest or weed control at 500 ppm (in data set [2]; in the data set on Botrytis cinerea; with Pyrenophora teres; in the data set on Sphaerotheca fuliginea; in the data set on Alternaria brassicae) was 90 to 100% each time.
